In patent US20090088472A1, “Protective Agent for Neuronal Cell Comprising Amidino Derivative as Active Ingredient” (priority 2006, published 2009):

Columns and labels:
[1] = system: retinal neuronal cells (RGC in ganglion cell layer, inner plexiform layer) damaged by NMDA; assay: NMDA-induced retinal damage in rats (intravitreal administration, histology after 14 days); format: in vivo; details: rat, 14 days after administration
Source text: In order to study the effect of protecting a retinal neuronal cell of a compound represented by the general formula [I] or a salt thereof, the effects of nafamostat and FUT-187, each of which is a compound represented by the general formula [I] or a salt thereof on NMDA-induced retinal damage in rats were studied. As comparative compounds, camostat (N,N-dimethylcarbamoylmethyl-4-(4-guanidinobenzoyloxy)phenylacetate methanesulfonate) represented by the following formula [II] and gabexate (ethyl-4-(6-guanidinohexanoyloxy)benzoate methanesulfonate) represented by the following formula [III] were used.
Each of NMDA, nafamostat and FUT-187 was dissolved in distilled water, whereby an NMDA solution, a nafamostat solution, and an FUT-187 aqueous solution were obtained. Then, the solutions were appropriately mixed, whereby an aqueous solution of 4 mM NMDA and 2 mM nafamostat (hereinafter referred to as “Test liquid 1”) and an aqueous solution of 4 mM NMDA and 2 mM FUT-187 (hereinafter referred to as “Test liquid 2”) were obtained. In the same manner, an aqueous solution of 4 mM NMDA and 20 mM camostat (hereinafter referred to as “Comparative test liquid 1”) and an aqueous solution of 4 mM NMDA and 20 mM gabexate (hereinafter referred to as “Comparative test liquid 2”) were obtained. Further, by mixing the NMDA solution and distilled water, a 4 mM NMDA liquid (hereinafter referred to as “NMDA liquid”) was obtained.
Mydriasis was induced in a rat with a 0.5% (w/v) tropicamide-0.5% phenylephrine hydrochloride ophthalmic solution, and then, anesthesia was induced with 3% halothane, and then, anesthesia was maintained with 1% halothane (halothane was vaporized with 0.5 L oxygen/min and 1.5 L dinitrogen monoxide/min). Then, a 0.4% (w/v) oxybuprocaine hydrochloride ophthalmic solution was instilled to the rat to anesthetize the surface of the eyeball, and by using a 32-gauge Hamilton microsyringe, 5 μl of Test liquid 1 was intravitreally administered under an operating microscope. Further, the same procedure as above was carried out by sequentially altering Test liquid 1 into distilled water, NMDA liquid, Test liquid 2, Comparative test liquid 1 and Comparative test liquid 2, respectively. Then, 14 days after the administration, the eyeball was taken out and fixed in 2.5% glutaraldehyde-10% neutral buffered formalin for 1 day. Thereafter, the cornea and lens were excised, and the 2.5% glutaraldehyde-10% neutral buffered formalin was changed to 10% neutral buffered formalin. At a later date, dehydration was carried out, followed by paraffin embedding and slicing and pathological tissue sections (with a thickness of 3 μm) stained with hematoxylin-eosin (HE) were prepared. From 8 sections which had been prepared by slicing the specimen with an interval of 15 μm per one eye such that the optic papilla was contained, 3 sections were optionally selected. With regard to the thus selected sections, a photograph of the retina in the range of from 1 to 1.5 mm on the left or right side from the optic papilla was taken, and the number of cells in the ganglion cell layer (GCL) in the retina (RGC number) and the thickness of the inner plexiform layer (IPL) were measured. From these measured values and in accordance with Equation 1 and Equation 2, a ganglion cell death inhibition rate and an IPL thinning inhibition rate were calculated. […]

trypsin = details: stated as known; cited from earlier work
[2] = 10 nmol/eye co-administered with 4 mM NMDA (5 μl)
[3] = 10 nmol/eye co-administered with 4 mM NMDA (5 μl), listed as nafamostat
[4] = 10 nmol/eye co-administered with 4 mM NMDA (5 μl), listed as FUT-187
[5] = 100 nmol/eye co-administered with 4 mM NMDA (5 μl)

N=C(N)Nc1ccc(C(=O)Oc2ccc3cc(C(=N)N)ccc3c2)cc1 [Test liquid 1, 6′-amidino-2′-naphthyl-4-guanidinobenzoate dimethanesulfonate]
Ganglion cell death inhibition rate [1, 2]: 78.8% | IPL thinning inhibition rate [1, 2]: 54.8% | Ganglion cell death inhibition rate [1, 3]: high | IPL thinning inhibition rate [1, 3]: high | trypsin inhibitory activity (trypsin): have the same activity

N=C(N)c1ccc2cc(OC(=O)c3ccc(NC4=NCCN4)cc3)ccc2c1 [Test liquid 2, 6′-amidino-2′-naphthyl-(4-(4,5-dihydro-1H-2-imidazolyl)amino)benzoate dimethanesulfonate]
Ganglion cell death inhibition rate [1, 2]: 136.8% | IPL thinning inhibition rate [1, 2]: 63.1% | Ganglion cell death inhibition rate [1, 4]: high | IPL thinning inhibition rate [1, 4]: high | trypsin inhibitory activity (trypsin): have the same activity

CCOC(=O)c1ccc(OC(=O)CCCCCNC(=N)N)cc1 [Comparative test liquid 2, ethyl-4-(6-guanidinohexanoyloxy)benzoate methanesulfonate]
Ganglion cell death inhibition rate [1, 5]: 17.8% | IPL thinning inhibition rate [1, 5]: 2.4% | trypsin inhibitory activity (trypsin): have a trypsin inhibitory activity
